ChEMBL document CHEMBL4033645, “Design, synthesis, and docking studies of quinazoline analogues bearing aryl semicarbazone scaffolds as potent EGFR inhibitors” (Bioorg Med Chem, 2017)

Tests used:
HepG2 [1] = assay: Cytotoxicity against human HepG2 cells assessed as decrease in cell viability after 72 hrs by MTT assay; assay type: functional, cell-based
MCF7 [2] = assay: Cytotoxicity against human MCF7 cells assessed as decrease in cell viability after 72 hrs by MTT assay; assay type: functional, cell-based
PC-3 = assay: Cytotoxicity against human PC3 cells assessed as decrease in cell viability after 72 hrs by MTT assay; assay type: functional, cell-based
A549 [3] = assay: Cytotoxicity against human A549 cells assessed as decrease in cell viability after 72 hrs by MTT assay; assay type: functional, cell-based; conditions: A549, 72 h
HepG2 [4] = assay: Potency index, ratio of afatinib IC50 to compound IC50 for human HepG2 cells; assay type: functional
A549 [5] = assay: Induction of apoptosis in human A549 cells assessed as early apoptotic cells at 0.5 uM after 48 hrs by Annexin V-FITC/propidium iodide-staining based by flow cytometric analysis (reference value: 3.40%); assay type: functional
A549 [6] = assay: Induction of apoptosis in human A549 cells assessed as late apoptotic cells at 0.5 uM after 48 hrs by Annexin V-FITC/propidium iodide-staining based by flow cytometric analysis (reference value: 2.69%); assay type: functional
A549 [7] = assay: Induction of apoptosis in human A549 cells assessed as necrotic cells at 1 uM after 48 hrs by Annexin V-FITC/propidium iodide-staining based by flow cytometric analysis (reference value: 0.64%); assay type: functional
MCF7 [8] = assay: Potency index, ratio of afatinib IC50 to compound IC50 for human MCF7 cells; assay type: functional
A549 [9] = assay: Induction of apoptosis in human A549 cells assessed as viable cells at 0.5 uM after 48 hrs by Annexin V-FITC/propidium iodide-staining based by flow cytometric analysis (reference value: 93.27%); assay type: functional; conditions: A549, 48 h, read-out: Activity
A549 [10] = assay: Induction of apoptosis in human A549 cells assessed as early apoptotic cells at 1 uM after 48 hrs by Annexin V-FITC/propidium iodide-staining based by flow cytometric analysis (reference value: 3.40%); assay type: functional
A549 [11] = assay: Induction of apoptosis in human A549 cells assessed as late apoptotic cells at 1 uM after 48 hrs by Annexin V-FITC/propidium iodide-staining based by flow cytometric analysis (reference value: 2.69%); assay type: functional
[12] = molecular target: Epidermal growth factor receptor (Homo sapiens, UniProt P00533); assay: Inhibition of EGFR (unknown origin) using FAM-labeled peptide as substrate measured after 10 mins by mobility shift assay
A549 [13] = assay: Induction of apoptosis in human A549 cells assessed as viable cells at 1 uM after 48 hrs by Annexin V-FITC/propidium iodide-staining based by flow cytometric analysis (reference value: 93.27%); assay type: functional; conditions: A549, 48 h, read-out: Activity
A549 [14] = assay: Induction of apoptosis in human A549 cells after 48 hrs by Annexin V-FITC/propidium iodide-staining based by flow cytometric analysis; assay type: functional, cell-based
A549 [15] = assay: Induction of apoptosis in human A549 cells assessed as necrotic cells at 0.5 uM after 48 hrs by Annexin V-FITC/propidium iodide-staining based by flow cytometric analysis (reference value: 0.64%); assay type: functional
[16] = Homo sapiens, MCF7, 72 h, read-out: IC50
[17] = Homo sapiens, HepG2, 72 h, read-out: IC50
[18] = Homo sapiens, PC-3, 72 h, read-out: IC50

Chain of Epidermal growth factor receptor (P00533 whole entry): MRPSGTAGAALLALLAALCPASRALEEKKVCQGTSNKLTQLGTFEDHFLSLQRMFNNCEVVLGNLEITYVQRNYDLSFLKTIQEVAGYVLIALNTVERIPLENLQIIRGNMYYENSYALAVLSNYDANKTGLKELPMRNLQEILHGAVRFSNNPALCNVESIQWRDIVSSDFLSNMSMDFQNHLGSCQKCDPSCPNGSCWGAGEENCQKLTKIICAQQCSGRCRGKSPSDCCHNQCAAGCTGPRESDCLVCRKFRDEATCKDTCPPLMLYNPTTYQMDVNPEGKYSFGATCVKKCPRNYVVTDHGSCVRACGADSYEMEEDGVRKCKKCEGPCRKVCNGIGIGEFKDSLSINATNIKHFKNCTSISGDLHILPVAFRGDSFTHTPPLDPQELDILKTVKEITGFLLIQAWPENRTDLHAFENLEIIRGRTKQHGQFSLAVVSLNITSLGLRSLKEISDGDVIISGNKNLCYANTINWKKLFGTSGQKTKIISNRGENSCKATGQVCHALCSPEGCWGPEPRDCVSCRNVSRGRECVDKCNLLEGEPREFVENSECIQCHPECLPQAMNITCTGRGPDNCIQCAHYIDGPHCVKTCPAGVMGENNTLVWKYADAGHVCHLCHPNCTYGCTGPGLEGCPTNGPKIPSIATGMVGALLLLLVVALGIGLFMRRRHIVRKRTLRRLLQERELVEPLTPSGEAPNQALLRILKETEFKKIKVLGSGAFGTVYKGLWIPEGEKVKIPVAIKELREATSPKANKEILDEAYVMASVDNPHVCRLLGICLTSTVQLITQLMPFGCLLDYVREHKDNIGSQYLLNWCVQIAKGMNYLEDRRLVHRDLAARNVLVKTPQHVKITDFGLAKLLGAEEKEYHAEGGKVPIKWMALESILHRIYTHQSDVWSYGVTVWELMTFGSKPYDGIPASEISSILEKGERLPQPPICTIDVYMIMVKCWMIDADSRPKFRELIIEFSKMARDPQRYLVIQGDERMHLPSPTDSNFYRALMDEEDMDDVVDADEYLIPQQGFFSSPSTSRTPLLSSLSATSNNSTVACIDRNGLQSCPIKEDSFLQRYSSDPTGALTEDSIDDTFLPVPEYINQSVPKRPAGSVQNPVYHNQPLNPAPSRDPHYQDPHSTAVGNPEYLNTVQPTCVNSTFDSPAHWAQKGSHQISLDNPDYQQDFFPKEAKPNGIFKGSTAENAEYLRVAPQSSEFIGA

SMILES | IC50 (MCF7 [2]; [16]) | IC50 (A549 [3]) | IC50 (HepG2 [1]; [17]) | IC50 (PC-3; [18]) | also measured
O=C(N/N=C/c1ccc(F)cc1)Nc1cc2c(Nc3ccc(F)c(Cl)c3)ncnc2cc1O[C@H]1CCOC1 | 28.2 µM | 35.1 µM |  |  | IC50 (HepG2 [1]; hepg2): Not Active; IC50 (PC-3; pc-3): Not Active
COc1cc2ncnc(Nc3ccc(F)c(Cl)c3)c2cc1NC(=O)N/N=C/c1cc(OC)c(OC)c(OC)c1 | 30.7 µM | 32.1 µM | 30.1 µM | 36.5 µM | 
COc1cc2ncnc(Nc3ccc(F)c(Cl)c3)c2cc1NC(=O)N/N=C/c1ccc(OC)c(OC)c1OC |  | 32.8 µM | 31.2 µM | 29.3 µM | IC50 (MCF7 [2]; mcf7): Not Active
COc1cc2ncnc(Nc3ccc(F)c(Cl)c3)c2cc1NC(=O)N/N=C/c1cccc(Br)c1 | 27.1 µM | 28.1 µM |  |  | IC50 (HepG2 [1]; hepg2): Not Active; IC50 (PC-3; pc-3): Not Active
COc1cc2ncnc(Nc3ccc(F)c(Cl)c3)c2cc1NC(=O)N/N=C/c1cc(C(C)(C)C)c(O)c(C(C)(C)C)c1 | 28.3 µM | 37.1 µM | 26.8 µM | 28.7 µM | 
COc1cc2ncnc(Nc3ccc(F)c(Cl)c3)c2cc1NC(=O)N/N=C/c1ccc(O)cc1O | 36.2 µM | 31.4 µM | 32.1 µM | 29.5 µM | 
O=C(N/N=C/c1ccc(O)cc1O)Nc1cc2c(Nc3ccc(F)c(Cl)c3)ncnc2cc1O[C@H]1CCOC1 | 5.35 µM | 9.36 µM | 4.53 µM | 7.54 µM | 
COc1cc2ncnc(Nc3ccc(F)c(Cl)c3)c2cc1NC(=O)N/N=C/c1ccc(O)cc1 | 28.6 µM | 7.61 µM | 26.3 µM | 16.6 µM | 
CCN(CC)c1ccc(/C=N/NC(=O)Nc2cc3c(Nc4ccc(F)c(Cl)c4)ncnc3cc2OC)c(O)c1 | 27.3 µM | 27.3 µM | 29.3 µM | 34.3 µM | 
CC(C)(C)c1cc(/C=N/NC(=O)Nc2cc3c(Nc4ccc(F)c(Cl)c4)ncnc3cc2O[C@H]2CCOC2)cc(C(C)(C)C)c1O | 14.5 µM | 18.9 µM | 12.5 µM | 13.1 µM | 
COc1cc2ncnc(Nc3ccc(F)c(Cl)c3)c2cc1NC(=O)N/N=C/c1ccc(O)c(Br)c1 |  | 28.6 µM | 23.8 µM | 15.3 µM | IC50 (MCF7 [2]; mcf7): Not Active
COc1cc2ncnc(Nc3ccc(F)c(Cl)c3)c2cc1NC(=O)N/N=C/c1cc(Br)c(O)c(Br)c1 | 30.2 µM | 34.6 µM | 36.8 µM | 41.5 µM | 
COc1cc(/C=N/NC(=O)Nc2cc3c(Nc4ccc(F)c(Cl)c4)ncnc3cc2O[C@H]2CCOC2)cc(OC)c1OC | 26.5 µM | 26.4 µM | 31.2 µM | 29.6 µM | 
O=C(N/N=C/c1ccc(O)c(Br)c1)Nc1cc2c(Nc3ccc(F)c(Cl)c3)ncnc2cc1O[C@H]1CCOC1 | 2.69 µM | 4.31 µM | 0.66 µM | 5.23 µM | 
O=C(N/N=C/c1ccc(F)cc1Cl)Nc1cc2c(Nc3ccc(F)c(Cl)c3)ncnc2cc1O[C@H]1CCOC1 | 32.2 µM | 27.2 µM | 26.1 µM | 28.4 µM | 
COc1ccc(/C=N/NC(=O)Nc2cc3c(Nc4ccc(F)c(Cl)c4)ncnc3cc2O[C@H]2CCOC2)cc1 | 27.3 µM | 33.1 µM | 28.8 µM | 34.1 µM | 

SMILES | IC50 (MCF7 [2]; [16]) | IC50 (A549 [3]) | IC50 (HepG2 [1]; [17]) | IC50 (PC-3; [18]) | also measured
O=C(N/N=C/c1ccc(O)cc1)Nc1cc2c(Nc3ccc(F)c(Cl)c3)ncnc2cc1O[C@H]1CCOC1 | 0.91 µM | 1.32 µM | 0.07 µM | 4.89 µM | Ratio IC50 (HepG2 [4]): 19; Activity (A549 [5]): 6.81%; Activity (A549 [6]): 6.94%; Activity (A549 [7]): 4.37%; Ratio IC50 (MCF7 [8]): 2.9; viability at 0.5 µM (A549 [9]): 83.9%; Activity (A549 [10]): 8.81%; Activity (A549 [11]): 8.94%; IC50 [12]: 0.056 µM; viability at 1 µM (A549 [13]): 77.9%; Activity (A549 [14]): Dose-dependent effect; Activity (A549 [15]): 2.37%
O=C(N/N=C/c1cc(Br)c(O)c(Br)c1)Nc1cc2c(Nc3ccc(F)c(Cl)c3)ncnc2cc1O[C@H]1CCOC1 | 5.91 µM | 8.91 µM | 2.74 µM | 6.16 µM | 
O=C(N/N=C/c1ccc([N+](=O)[O-])cc1)Nc1cc2c(Nc3ccc(F)c(Cl)c3)ncnc2cc1O[C@H]1CCOC1 |  | 31.2 µM | 35.3 µM | 33.5 µM | IC50 (MCF7 [2]; mcf7): Not Active
COc1cc2ncnc(Nc3ccc(F)c(Cl)c3)c2cc1NC(=O)N/N=C/c1cccc(Cl)c1Cl | 28.7 µM | 35.3 µM | 26.1 µM | 24.4 µM | 
COc1cc2ncnc(Nc3ccc(F)c(Cl)c3)c2cc1NC(=O)N/N=C/c1ccc(F)cc1 | 35.1 µM | 26.6 µM | 31.1 µM | 36.5 µM | 
N#Cc1ccc(/C=N/NC(=O)Nc2cc3c(Nc4ccc(F)c(Cl)c4)ncnc3cc2O[C@H]2CCOC2)cc1 |  | 29.1 µM | 26.4 µM | 28.1 µM | 
COc1cc2ncnc(Nc3ccc(F)c(Cl)c3)c2cc1NC(=O)N/N=C/c1ccc([N+](=O)[O-])cc1 | 36.8 µM | 35.1 µM | 34.1 µM | 32.4 µM | 
COc1cc2ncnc(Nc3ccc(F)c(Cl)c3)c2cc1NC(=O)N/N=C/c1ccc(C#N)cc1 |  | 32.2 µM | 34.1 µM | 36.5 µM | 
COc1ccc(/C=N/NC(=O)Nc2cc3c(Nc4ccc(F)c(Cl)c4)ncnc3cc2OC)cc1 | 8.14 µM | 28.1 µM | 21.3 µM | 16.5 µM | 
CCN(CC)c1ccc(/C=N/NC(=O)Nc2cc3c(Nc4ccc(F)c(Cl)c4)ncnc3cc2O[C@H]2CCOC2)c(O)c1 | 15.6 µM | 15.7 µM | 15.7 µM | 4.59 µM | 
CN(C)C/C=C/C(=O)Nc1cc2c(Nc3ccc(F)c(Cl)c3)ncnc2cc1O[C@H]1CCOC1 [AFATINIB] |  | 1.4 µM |  | 3.96 µM | 
O=C(N/N=C/c1cccc(Br)c1)Nc1cc2c(Nc3ccc(F)c(Cl)c3)ncnc2cc1O[C@H]1CCOC1 | 12.4 µM | 10.7 µM | 32.3 µM | 15.5 µM | 
COc1cc2ncnc(Nc3ccc(F)c(Cl)c3)c2cc1NC(=O)N/N=C/c1ccc(F)cc1Cl |  | 28.2 µM | 29.2 µM | 25.7 µM | IC50 (MCF7 [2]; mcf7): Not Active
COc1ccc(/C=N/NC(=O)Nc2cc3c(Nc4ccc(F)c(Cl)c4)ncnc3cc2O[C@H]2CCOC2)c(OC)c1OC | 33.8 µM | 25.2 µM | 29.3 µM | 25.6 µM | 
O=C(N/N=C/c1cccc(Cl)c1Cl)Nc1cc2c(Nc3ccc(F)c(Cl)c3)ncnc2cc1O[C@H]1CCOC1 |  | 25 µM | 16.9 µM | 27.4 µM | IC50 (MCF7 [2]; mcf7): Not Active
